# The source made the active and inactive calls.
# Experiments:
# [1] = target: T1, Aryl hydrocarbon receptor (Homo sapiens, UniProt P35869); test: Luminescence-based cell-based high throughput dose response assay for activators of the Aryl Hydrocarbon Receptor (AHR). [Related pubchem assays: 2796 (Primary screen (AHR activators in singlicate)), 2845 (Confirmation screen (AHR activators in triplicate)), 434939 (Counterscreen (PXR activators in triplicate)), 2804 (Summary (AHR activators))]; format: ADME
# T1 sequence (P35869 whole entry): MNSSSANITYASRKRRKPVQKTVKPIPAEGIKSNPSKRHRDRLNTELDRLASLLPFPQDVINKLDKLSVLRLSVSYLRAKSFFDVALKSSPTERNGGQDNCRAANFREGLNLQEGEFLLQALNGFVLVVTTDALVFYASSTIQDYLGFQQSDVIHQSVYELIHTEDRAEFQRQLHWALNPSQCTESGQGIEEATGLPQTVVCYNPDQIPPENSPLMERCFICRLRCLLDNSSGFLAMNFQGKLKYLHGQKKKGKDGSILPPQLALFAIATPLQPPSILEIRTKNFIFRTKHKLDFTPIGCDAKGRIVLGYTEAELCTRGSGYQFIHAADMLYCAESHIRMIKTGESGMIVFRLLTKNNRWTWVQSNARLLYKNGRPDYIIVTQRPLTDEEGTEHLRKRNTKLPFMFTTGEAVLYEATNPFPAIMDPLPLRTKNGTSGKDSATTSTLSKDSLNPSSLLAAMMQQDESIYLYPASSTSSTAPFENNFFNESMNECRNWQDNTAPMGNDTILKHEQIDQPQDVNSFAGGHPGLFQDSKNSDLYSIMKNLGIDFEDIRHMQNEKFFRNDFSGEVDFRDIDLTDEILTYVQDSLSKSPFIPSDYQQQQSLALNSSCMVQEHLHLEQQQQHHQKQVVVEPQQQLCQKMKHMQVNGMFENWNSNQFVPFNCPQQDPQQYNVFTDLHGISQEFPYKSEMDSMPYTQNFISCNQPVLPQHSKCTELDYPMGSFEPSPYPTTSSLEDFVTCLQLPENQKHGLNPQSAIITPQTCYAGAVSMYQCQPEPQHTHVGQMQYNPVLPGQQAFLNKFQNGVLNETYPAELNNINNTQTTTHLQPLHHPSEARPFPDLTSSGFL
# [2] = target: Peroxisome proliferator-activated receptor gamma/Nuclear receptor coactivator 3 (Homo sapiens, UniProt P37231); format: functional;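 further: agonist potency for raising coactivator recruitment to the receptor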
# [3] = target: Peroxisome proliferator-activated receptor gamma/Nuclear receptor coactivator 2 (Homo sapiens, UniProt P37231); format: functional;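 further: agonist potency for raising coactivator recruitment to the receptor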
# [4] = target: Peroxisome proliferator-activated receptor gamma/Nuclear receptor coactivator 1 (Homo sapiens, UniProt P37231); format: functional;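 further: agonist potency as compounds enhance coactivator SRC-1 recruitment to PPARgamma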
# Vero = test: mammalian cell viability reduction – secondary assay, cytotoxicity control for West Nile virus antiviral project, dose response (AID 1650); format: functional; conditions: Chlorocebus sabaeus
# [5] = M. tuberculosis H37Rv growth inhibitors, H37Rv strain (AID 1626); format: functional
# [6] = HPDE-C7 pancreatic duct cell viability loss – fluorescence, HTS (AID 430); format: functional, cell-based; conditions: Homo sapiens
# [7] = viability loss of HPDE-C7K cells – cell-based, fluorescence, HTS, primary screen (AID 431); format: functional; conditions: Homo sapiens
# [8] = target: T2, Neuropeptide Y receptor type 2 (Homo sapiens, UniProt P49146); format: functional, cell-based;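 further: HEK293 cells expressing the receptor and a CNG channel; stimulus was NPY near EC95 followed by isoproterenol to raise cAMP; antagonist potency measured as restoring cAMP signal that NPY suppresses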
# T2 sequence (P49146 whole entry): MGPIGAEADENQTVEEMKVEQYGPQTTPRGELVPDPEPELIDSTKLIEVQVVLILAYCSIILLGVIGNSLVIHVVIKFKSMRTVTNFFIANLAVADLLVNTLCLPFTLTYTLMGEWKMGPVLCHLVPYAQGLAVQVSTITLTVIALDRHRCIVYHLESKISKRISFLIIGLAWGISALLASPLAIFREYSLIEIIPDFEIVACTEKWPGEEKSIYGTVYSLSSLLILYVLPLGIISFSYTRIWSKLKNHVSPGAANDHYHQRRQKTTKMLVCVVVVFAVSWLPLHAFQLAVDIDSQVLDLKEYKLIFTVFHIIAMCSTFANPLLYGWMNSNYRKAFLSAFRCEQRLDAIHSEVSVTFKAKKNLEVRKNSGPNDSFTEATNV
# [9] = target: T3, Neuropeptide Y receptor type 1 (Homo sapiens, UniProt P25929); format: functional;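 further: HEK293 cells with a CNG channel challenged with NPY then isoproterenol; potency as antagonist that reverses NPY suppression of cAMP signal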
# T3 sequence (P25929 whole entry): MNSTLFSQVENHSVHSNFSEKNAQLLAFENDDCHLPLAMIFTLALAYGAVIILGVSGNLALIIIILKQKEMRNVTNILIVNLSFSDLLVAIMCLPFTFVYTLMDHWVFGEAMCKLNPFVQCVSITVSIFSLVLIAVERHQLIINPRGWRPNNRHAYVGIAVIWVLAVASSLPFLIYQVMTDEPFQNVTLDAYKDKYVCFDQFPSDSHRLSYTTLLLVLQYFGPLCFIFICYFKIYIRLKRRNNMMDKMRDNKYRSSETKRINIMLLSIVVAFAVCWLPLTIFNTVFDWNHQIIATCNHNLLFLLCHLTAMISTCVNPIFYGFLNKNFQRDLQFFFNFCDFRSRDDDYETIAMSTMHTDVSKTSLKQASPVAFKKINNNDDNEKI
# [10] = target: T4, Acyl-homoserine lactone acylase PvdQ (Pseudomonas aeruginosa (strain LESB58), UniProt Q9I194); test: PvdQ acylase enzyme activity blockers – biochemical, fluorescence, plate reader and imaging, cherry-picks, dose response (AID 493231)
# T4 sequence (Q9I194 whole entry): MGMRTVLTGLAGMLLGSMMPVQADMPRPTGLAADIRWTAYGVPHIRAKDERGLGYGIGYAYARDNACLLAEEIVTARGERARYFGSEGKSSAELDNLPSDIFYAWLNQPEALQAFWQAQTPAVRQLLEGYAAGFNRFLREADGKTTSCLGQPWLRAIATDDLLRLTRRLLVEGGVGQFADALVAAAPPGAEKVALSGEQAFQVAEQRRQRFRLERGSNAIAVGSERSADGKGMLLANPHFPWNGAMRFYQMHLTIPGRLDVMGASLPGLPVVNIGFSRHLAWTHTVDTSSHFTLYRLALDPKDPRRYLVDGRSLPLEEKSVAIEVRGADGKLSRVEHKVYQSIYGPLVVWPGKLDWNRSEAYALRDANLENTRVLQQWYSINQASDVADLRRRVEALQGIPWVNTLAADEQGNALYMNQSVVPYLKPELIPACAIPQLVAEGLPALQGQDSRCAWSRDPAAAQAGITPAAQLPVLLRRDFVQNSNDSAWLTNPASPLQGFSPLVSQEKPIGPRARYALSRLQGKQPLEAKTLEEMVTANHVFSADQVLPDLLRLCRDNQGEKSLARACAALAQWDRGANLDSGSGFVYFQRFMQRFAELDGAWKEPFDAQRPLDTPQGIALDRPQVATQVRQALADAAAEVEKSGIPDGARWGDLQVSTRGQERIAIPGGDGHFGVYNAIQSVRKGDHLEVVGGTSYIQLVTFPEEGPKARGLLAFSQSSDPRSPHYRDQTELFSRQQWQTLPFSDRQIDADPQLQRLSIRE
# [11] = Luminescence Cell-Based Dose Confirmation HTS to Identify Activators of 5'UTR Stem-Loop Driven Alpha-Synuclein mRNA Translation in H4 Neuroglioblastoma Cells. [Related pubchem assays: 1829 (Project Summary), 1814 (Primary HTS)]; format: functional
# [12] = Luminescence Cell-Based Dose Response HTS to Identify Activators of Luciferase Translation or Activity in H4 […] Cells. [Related pubchem assays: 1829 (Project Summary), 1814 (Primary HTS)]; format: functional
# [13] = Luminescence Cell-Based Dose Confirmation to Identify Activators of 5'UTR Stem-Loop Driven Alpha-Synuclein mRNA Translation in H4 Neuroglioblastoma Cells. [Related pubchem assays: 1829 (Project Summary), 1814 (Primary HTS)]; format: functional
# [14] = Luminescence Cell-Based Dose Response to Identify Activators of 5'UTR Stem-Loop Driven Prion Protein mRNA Translation in H4-C Neuroglioblastoma Cells. [Related pubchem assays: 1829 (Project Summary), 1814 (Primary HTS)]; format: functional
# [15] = Luminescence Cell-Based Dose Response to Identify Activators of Luciferase Translation or Activity in H4-C Neuroglioblastoma Cells. [Related pubchem assays: 1829 (Project Summary), 1814 (Primary HTS)]; format: functional
# [16] = target: T5, Rac GTPase-activating protein 1 (Homo sapiens, UniProt Q9H0H5); test: blockers of MgcRacGAP-driven Rac1 GTP hydrolysis – biochemical, ADP Hunter fluorescence, primary and confirmatory, confirmation (AID 624330); format: functional
# T5 sequence (Q9H0H5 whole entry): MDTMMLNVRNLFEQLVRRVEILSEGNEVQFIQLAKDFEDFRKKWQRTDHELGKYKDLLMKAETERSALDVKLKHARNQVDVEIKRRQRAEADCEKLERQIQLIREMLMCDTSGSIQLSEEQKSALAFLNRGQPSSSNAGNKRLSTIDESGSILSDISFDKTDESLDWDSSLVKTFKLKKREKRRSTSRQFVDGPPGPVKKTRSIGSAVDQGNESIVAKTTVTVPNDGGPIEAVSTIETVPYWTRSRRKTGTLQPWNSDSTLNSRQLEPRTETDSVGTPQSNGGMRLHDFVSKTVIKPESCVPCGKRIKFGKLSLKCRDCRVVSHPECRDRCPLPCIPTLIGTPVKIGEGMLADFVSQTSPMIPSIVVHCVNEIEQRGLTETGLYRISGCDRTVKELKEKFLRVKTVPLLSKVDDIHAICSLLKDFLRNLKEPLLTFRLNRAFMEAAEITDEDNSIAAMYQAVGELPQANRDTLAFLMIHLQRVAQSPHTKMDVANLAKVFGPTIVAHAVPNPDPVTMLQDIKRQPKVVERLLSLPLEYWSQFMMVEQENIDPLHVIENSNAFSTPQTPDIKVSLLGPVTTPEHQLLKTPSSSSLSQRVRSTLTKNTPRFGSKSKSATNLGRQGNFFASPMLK
# [17] = target: Melanin-concentrating hormone receptor 1 (Homo sapiens, UniProt Q99705); test: Late-stage fluorescence-based counterscreen for antagonists of the G-protein coupled receptor 7 (GPR7): cell-based dose response assay to identify antagonists of the melanin-concentrating hormone receptor 1 (MCHR1). [Related pubchem assays (depositor defined):AID1861, AID1880, AID1952, AID2148, AID2251, AID2257, AID485339]; format: functional;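 further: stimulated with 30 nM MCH peptide agonist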
# [18] = target: T6, Voltage-gated N-type calcium channel alpha-1B subunit/Amyloid beta A4 precursor protein-binding family A member 1 (Homo sapiens, UniProt Q00975+Q02410); test: disruptors of Mint-PDZ/N-type channel peptide interaction – biochemical, HTRF, set 2, SAR follow-up (AID 434980); format: functional
# [19] = target: T6, Voltage-gated N-type calcium channel alpha-1B subunit/Amyloid beta A4 precursor protein-binding family A member 1; test: disruptors of Mint-PDZ/N-type channel peptide interaction – biochemical, HTRF, SAR follow-up (AID 2489); format: functional
# Chain of Peroxisome proliferator-activated receptor gamma/Nuclear receptor coactivator 2 (P37231 whole entry): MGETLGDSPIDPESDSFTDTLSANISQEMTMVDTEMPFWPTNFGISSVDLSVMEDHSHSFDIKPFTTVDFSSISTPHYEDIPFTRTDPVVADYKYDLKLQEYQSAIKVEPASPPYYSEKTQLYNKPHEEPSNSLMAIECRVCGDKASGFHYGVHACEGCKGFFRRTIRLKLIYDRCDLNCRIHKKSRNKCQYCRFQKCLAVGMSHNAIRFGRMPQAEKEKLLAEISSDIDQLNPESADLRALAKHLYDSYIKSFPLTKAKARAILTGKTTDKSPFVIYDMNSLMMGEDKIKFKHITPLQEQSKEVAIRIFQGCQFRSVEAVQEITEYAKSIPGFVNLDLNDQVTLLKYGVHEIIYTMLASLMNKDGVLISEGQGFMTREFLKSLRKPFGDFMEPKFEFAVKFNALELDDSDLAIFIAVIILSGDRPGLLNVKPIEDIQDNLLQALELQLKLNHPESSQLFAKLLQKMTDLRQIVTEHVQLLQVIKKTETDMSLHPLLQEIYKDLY
# Chain of Peroxisome proliferator-activated receptor gamma/Nuclear receptor coactivator 2 (Q15596 whole entry, further chain): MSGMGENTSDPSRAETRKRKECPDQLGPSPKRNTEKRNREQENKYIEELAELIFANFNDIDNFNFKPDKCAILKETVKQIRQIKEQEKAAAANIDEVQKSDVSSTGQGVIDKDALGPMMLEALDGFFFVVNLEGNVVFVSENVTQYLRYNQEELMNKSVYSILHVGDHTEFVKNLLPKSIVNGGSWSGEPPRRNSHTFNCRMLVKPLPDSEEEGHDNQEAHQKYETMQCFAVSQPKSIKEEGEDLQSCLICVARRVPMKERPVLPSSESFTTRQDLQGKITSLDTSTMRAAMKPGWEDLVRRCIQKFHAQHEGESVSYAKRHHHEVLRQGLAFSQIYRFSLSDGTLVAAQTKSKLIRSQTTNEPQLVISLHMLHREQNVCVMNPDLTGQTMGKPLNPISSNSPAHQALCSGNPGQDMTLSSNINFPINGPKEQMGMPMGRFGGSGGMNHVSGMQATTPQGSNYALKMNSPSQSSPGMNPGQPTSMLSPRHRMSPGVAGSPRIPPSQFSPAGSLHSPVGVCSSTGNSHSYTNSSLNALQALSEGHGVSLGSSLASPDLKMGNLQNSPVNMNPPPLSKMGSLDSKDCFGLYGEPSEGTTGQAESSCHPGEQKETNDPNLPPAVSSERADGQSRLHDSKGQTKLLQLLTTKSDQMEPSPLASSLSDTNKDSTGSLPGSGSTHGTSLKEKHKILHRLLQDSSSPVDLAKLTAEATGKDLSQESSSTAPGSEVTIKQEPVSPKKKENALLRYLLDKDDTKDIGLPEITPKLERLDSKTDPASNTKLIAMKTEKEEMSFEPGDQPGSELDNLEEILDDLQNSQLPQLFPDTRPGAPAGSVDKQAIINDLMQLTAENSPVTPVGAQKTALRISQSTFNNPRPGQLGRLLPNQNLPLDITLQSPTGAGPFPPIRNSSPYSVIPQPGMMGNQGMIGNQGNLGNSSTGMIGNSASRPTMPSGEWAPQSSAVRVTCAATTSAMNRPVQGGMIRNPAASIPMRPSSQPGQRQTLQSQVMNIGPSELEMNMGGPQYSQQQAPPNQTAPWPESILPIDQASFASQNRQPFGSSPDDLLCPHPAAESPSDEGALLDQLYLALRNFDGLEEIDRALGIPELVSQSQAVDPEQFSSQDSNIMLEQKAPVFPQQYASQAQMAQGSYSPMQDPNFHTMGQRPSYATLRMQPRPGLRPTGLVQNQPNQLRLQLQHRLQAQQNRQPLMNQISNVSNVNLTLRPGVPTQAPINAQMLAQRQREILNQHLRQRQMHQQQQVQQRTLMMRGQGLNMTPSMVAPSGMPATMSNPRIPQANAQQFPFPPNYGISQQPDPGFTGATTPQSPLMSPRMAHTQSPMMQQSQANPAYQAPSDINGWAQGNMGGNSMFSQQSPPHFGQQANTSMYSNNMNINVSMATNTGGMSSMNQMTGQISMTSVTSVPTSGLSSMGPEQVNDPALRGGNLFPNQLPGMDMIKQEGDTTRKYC
# Chain of Peroxisome proliferator-activated receptor gamma/Nuclear receptor coactivator 3 (P37231 whole entry): as the sequence (P37231 whole entry) above
# Chain of Peroxisome proliferator-activated receptor gamma/Nuclear receptor coactivator 3 (Q9Y6Q9 whole entry, further chain): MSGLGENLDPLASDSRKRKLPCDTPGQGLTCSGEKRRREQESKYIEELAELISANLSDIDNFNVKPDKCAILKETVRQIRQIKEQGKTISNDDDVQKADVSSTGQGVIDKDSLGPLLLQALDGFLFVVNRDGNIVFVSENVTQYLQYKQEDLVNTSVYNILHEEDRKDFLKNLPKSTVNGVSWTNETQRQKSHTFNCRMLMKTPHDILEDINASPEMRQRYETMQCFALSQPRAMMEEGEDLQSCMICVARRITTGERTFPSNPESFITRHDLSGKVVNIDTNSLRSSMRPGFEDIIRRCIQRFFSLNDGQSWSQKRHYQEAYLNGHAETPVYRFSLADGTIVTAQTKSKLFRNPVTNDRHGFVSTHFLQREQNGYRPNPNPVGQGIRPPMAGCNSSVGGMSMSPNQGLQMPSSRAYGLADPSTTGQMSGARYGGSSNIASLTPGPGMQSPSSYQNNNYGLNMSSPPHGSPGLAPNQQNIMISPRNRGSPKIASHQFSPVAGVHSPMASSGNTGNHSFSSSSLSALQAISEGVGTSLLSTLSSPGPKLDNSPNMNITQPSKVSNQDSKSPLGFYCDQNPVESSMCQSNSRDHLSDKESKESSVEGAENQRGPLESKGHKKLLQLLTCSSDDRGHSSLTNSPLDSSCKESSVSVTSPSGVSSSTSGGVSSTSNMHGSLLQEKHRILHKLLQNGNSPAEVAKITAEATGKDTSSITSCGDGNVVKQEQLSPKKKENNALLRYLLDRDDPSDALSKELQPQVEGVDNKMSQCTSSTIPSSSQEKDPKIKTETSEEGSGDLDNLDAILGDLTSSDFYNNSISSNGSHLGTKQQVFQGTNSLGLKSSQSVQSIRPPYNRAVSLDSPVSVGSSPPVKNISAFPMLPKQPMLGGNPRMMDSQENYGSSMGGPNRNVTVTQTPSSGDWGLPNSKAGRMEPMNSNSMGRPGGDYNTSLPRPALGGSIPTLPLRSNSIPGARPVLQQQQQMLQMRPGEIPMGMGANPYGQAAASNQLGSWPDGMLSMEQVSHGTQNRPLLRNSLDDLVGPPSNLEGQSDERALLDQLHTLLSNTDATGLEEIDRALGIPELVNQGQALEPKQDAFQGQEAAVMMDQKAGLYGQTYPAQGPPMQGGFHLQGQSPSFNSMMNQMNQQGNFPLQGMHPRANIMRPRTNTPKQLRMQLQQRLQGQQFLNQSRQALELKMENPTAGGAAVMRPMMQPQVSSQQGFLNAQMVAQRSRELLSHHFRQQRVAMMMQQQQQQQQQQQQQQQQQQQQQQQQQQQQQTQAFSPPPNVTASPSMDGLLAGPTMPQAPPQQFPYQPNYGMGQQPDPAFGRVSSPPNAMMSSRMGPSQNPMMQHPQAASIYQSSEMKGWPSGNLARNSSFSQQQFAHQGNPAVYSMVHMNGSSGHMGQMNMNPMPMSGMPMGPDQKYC
# Chain of Melanin-concentrating hormone receptor 1 (Q99705 whole entry): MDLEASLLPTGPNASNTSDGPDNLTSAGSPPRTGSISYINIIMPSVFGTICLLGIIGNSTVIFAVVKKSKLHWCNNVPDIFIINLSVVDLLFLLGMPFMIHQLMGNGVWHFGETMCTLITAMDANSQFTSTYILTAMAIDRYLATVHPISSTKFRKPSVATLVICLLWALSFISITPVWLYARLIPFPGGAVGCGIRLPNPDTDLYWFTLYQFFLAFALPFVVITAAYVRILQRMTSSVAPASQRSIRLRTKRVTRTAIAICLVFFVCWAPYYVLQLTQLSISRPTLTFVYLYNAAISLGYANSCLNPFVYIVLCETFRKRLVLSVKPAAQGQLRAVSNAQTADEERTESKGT
structure (smiles),measurement,setting,value
CCOc1ccccc1NC(=O)c1ccc2nccnc2c1,EC50,[1],2.21 µM (active)
COc1ccc(NC(=O)CSc2ccc3c4c(cccc24)C(=O)c2ccccc2-3)cc1,EC50,[2],> 79.4 µM (not active)
same,EC50,[3],> 79.4 µM (not active)
same,EC50,[4],> 79.4 µM (not active)
same,CC50,Vero,71.7 µM (active)
O=C(Nc1nc(-c2ccc(F)cc2)cs1)c1cnccn1,IC50,[5],> 100 µM (active)
C=CCn1c(N)c(C(=O)NCC2CCCO2)c2nc3ccccc3nc21 (stereo not drawn),EC50,[6],> 20 µM (not active)
same,EC50,[7],> 20 µM (not active)
CC(C)COc1ccc(C(=O)OC2CC(C)(C)OCC2CN(C)C)cc1 (stereo not drawn),IC50,[8],8.01 µM (active)
same,IC50,[9],5.55 µM (active)
Cc1n[nH]c2c1C(c1ccc(-c3ccccc3C#N)o1)C(C#N)=C(N)O2 (stereo not drawn),EC50,[6],7.78 µM (active)
same,EC50,[7],16.3 µM (active)
CC(C)(C)NC(=O)C1N(c2cccnc2)C(=O)C2C(C(=O)Nc3ccccc3F)C3(C)C=CC21O3 (stereo not drawn),EC50,[6],> 20 µM (not active)
same,EC50,[7],> 20 µM (not active)
O=C(NC1CCCCC1)c1cc(Cl)ccc1[N+](=O)[O-],AC50,[10],69.3 µM (active)
[O-][n+]1onc2c1CCc1nnc(-c3ccccc3)cc1-2,EC50,[1],2.83 µM (active)
Cc1cccc(C)c1NC(=S)Nc1c(C)n(C)n(-c2ccccc2)c1=O,EC50,[2],> 79.4 µM (not active)
same,EC50,[3],> 79.4 µM (not active)
same,EC50,[4],> 79.4 µM (not active)
COc1ccc(-n2nc(C(=O)Nc3ccc4c(c3)OCO4)c3ccccc3c2=O)cc1,IC50,[8],7.17 µM (active)
same,IC50,[9],7.16 µM (active)
CC(C)(C)CC(=O)Nc1nnc(-c2cccs2)s1,EC50,[11],< 0.1 µM (active)
same,EC50,[12],< 0.1 µM (active)
same,EC50,[13],0.231 µM (active)
same,EC50,[14],0.335 µM (active)
same,EC50,[15],0.408 µM (active)
Cc1cc(NC(=O)c2ccc([N+](=O)[O-])cc2Cl)no1,AC50,[10],> 100 µM (inactive)
CC(C)c1ccc(NC(=O)COc2ccc(C3SCCS3)cc2)cc1,IC50,[5],> 100 µM (active)
O=C1c2ccccc2C(=O)C1c1ccc(O)cc1,EC50,[2],> 79.4 µM (not active)
same,EC50,[3],> 79.4 µM (not active)
same,IC50,[16],172 µM (active)
same,EC50,[4],> 79.4 µM (not active)
COc1ccc(Oc2c(Cl)cnn(-c3cccc(OC)c3)c2=O)cc1,IC50,[17],3.4 µM (active)
O=CN(c1ccccc1)c1ccc2ccccc2c1,AC50,[10],2.68 µM (active)
COc1ccc(Oc2c(C#N)cnn(-c3ccc(C(C)C)cc3)c2=O)cc1,IC50,[17],7.5 µM (active)
O=C(c1cc(-c2ccco2)nc2ccccc12)N1CCCC(c2ccccc2)C1 (stereo not drawn),IC50,[18],> 56.8 µM (inactive)
same,IC50,[19],> 56.8 µM (inactive)
Cc1cc(O)nc(N/N=C/c2ccc(Br)s2)n1,EC50,[1],8.5 µM (active)
